The values below come from US20150175655A1 (priority 2012, published 2015).

A word on the Ki: it is a dissociation constant, usually derived from enzyme kinetics or from competition with a known ligand.

The target of this test is T1, NS3 genotype 3a protease (UniProt Q81258).
T1 construct: Purified NS3 protease domain (amino acids 1-181) of the genotype 1b and 3a virus were generated as above; fused on or other part: N-terminal hexahistidine tag and rTEV protease cleavage site (vector p28-N6H-Tev-NS3(181)3)
T1 sequence (Q81258 1033-1663): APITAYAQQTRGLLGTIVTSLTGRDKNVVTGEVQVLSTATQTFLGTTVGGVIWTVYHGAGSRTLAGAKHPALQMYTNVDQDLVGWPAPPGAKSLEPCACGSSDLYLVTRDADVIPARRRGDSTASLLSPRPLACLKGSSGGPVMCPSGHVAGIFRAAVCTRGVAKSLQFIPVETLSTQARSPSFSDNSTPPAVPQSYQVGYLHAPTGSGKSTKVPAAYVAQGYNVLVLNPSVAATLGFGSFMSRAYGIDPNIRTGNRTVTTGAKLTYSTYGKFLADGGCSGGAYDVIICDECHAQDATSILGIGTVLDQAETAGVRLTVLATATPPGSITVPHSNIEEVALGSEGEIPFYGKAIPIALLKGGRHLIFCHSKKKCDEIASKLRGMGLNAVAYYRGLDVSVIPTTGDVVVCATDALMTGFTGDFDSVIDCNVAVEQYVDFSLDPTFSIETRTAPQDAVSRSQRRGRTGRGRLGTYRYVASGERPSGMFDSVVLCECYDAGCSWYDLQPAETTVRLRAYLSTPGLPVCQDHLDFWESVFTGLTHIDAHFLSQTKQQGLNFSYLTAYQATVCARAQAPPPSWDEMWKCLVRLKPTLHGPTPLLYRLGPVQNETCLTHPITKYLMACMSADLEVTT
Put plainly: Ki determination, NS3 protease genotype 3a (fluorogenic depsipeptide substrate). The following applies: 200 pM enzyme, 20 μM NS4A peptide, 2 μM substrate, read-out: Ki 3A. The test is classed as biochemical, hepatitis C virus. In short, it runs like this:
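Refolded His-tagged NS3 protease domain (aa 1-181, genotype 3a) at 200 pM with 20 μM NS4A peptide was pre-incubated 1 h at RT with inhibitor (100 nM–5 pM, 3-fold), then 2 μM FRET depsipeptide substrate was added in HEPES/40% glycerol/10% DMSO buffer. Steady-state rates over 90-120 min (ex 340/em 490 nm) versus inhibitor concentration gave Ki.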
For the compound `COc1ccc2nc3c(nc2c1)O[C@H]1CN(C(=O)[C@H](C(C)(C)C)NC(=O)O[C@@H]2C[C@H]2CCCCC3F)[C@H](C(=O)N[C@]2(C(=O)NS(=O)(=O)C3(C)CC3)C[C@H]2C(F)F)[C@@H]1C` (stereo partly drawn) [Example 47, (1aR,5S,8S,9S,10R,22aR)-5-tert-butyl-N-[(1R,2R)-2-(difluoromethyl)-1-{[(1-methylcyclopropyl)sulfonyl]carbamoyl}cyclopropyl]-18-fluoro-14-methoxy-9-methyl-3,6-dioxo-1,1a,3,4,5,6,9,10,18,19,20,21,22,22a-tetradecahydro-8H-7,10-methanocyclopropa[18,19][1,10,3,6]dioxadiazacyclononadecino[11,12-b]quinoxaline-8-carboxamide], the Ki came out at 0.19 nM.
Take `CC[C@@H]1[C@@H]2CN(C(=O)[C@H](C(C)(C)C)NC(=O)O[C@@H]3C[C@H]3CC/C=C/C(F)(F)C3Nc4ccc(C#N)cc4N=C3O2)[C@@H]1C(=O)N[C@]1(C(=O)NS(=O)(=O)C2(C)CC2)C[C@H]1C(F)F` (stereo partly drawn) [Example 78, (1aR,5S,8S,9S,10R,19E,22aR)-5-tert-butyl-14-cyano-N-[(1R,2R)-2-(difluoromethyl)-1-{[(1-methylcyclopropyl)sulfonyl]carbamoyl}cyclopropyl]-9-ethyl-18,18-difluoro-3,6-dioxo-1,1a,3,4,5,6,9,10,17,17a,18,21,22,22a-tetradecahydro-8H-7,10-methanocyclopropa[18,19][1,10,3,6]dioxadiazacyclononadecino[11,12-b]quinoxaline-8-carboxamide]: the Ki is 0.82 nM.
Under `CC[C@@H]1[C@@H]2CN(C(=O)[C@H](C(C)(C)C)NC(=O)O[C@]3(C)CCC[C@H]3CCCCCc3nc4ccc(OC)cc4nc3O2)[C@@H]1C(=O)N[C@]1(C(=O)NS(=O)(=O)C2(C)CC2)C[C@H]1CC(F)F` [Example 41, (3aR,7S,10S,11S,12R,24aR)-7-tert-butyl-N-[(1R,2S)-2-(2,2-difluoroethyl)-1-{[(1-methylcyclopropyl)sulfonyl]carbamoyl}cyclopropyl]-11-ethyl-16-methoxy-3a-methyl-5,8-dioxo-1,2,3,3a,5,6,7,8,11,12,20,21,22,23,24,24a-hexadecahydro-10H-9,12-methanocyclopenta[18,19][1,10,3,6]dioxadiazacyclononadecino[11,12-b]quinoxaline-10-carboxamide] stands 0.79 nM.
As to `C[C@@H]1[C@@H]2CN(C(=O)[C@H](C(C)(C)C)NC(=O)O[C@@H]3C[C@H]3CCCCC(F)(F)c3nc4ccc(Cl)cc4nc3O2)[C@@H]1C(=O)N[C@]1(C(=O)NS(=O)(=O)C2(C)CC2)C[C@H]1C(F)F` [Example 88, (1aR,5S,8S,9S,10R,22aR)-5-tert-butyl-14-chloro-N-[(1R,2R)-2-(difluoromethyl)-1-{[(1-methylcyclopropyl)sulfonyl]carbamoyl}cyclopropyl]-18,18-difluoro-9-methyl-3,6-dioxo-1,1a,3,4,5,6,9,10,18,19,20,21,22,22a-tetradecahydro-8H-7,10-methanocyclopropa[18,19][1,10,3,6]dioxadiazacyclononadecino[11,12-b]quinoxaline-8-carboxamide], the Ki is 0.29 nM.
